Experimental data from patent publication US5461067A, “Retroviral protease inhibiting compounds” (priority 1994, dated 1995).
One block for each compound: values may come before it.

Columns and labels:
HIV-13B in MT4 cells = test: Anti-HIV activity (inhibition of cytopathic effect of HIV) in MT4 cells; type: cell-based; conditions: Human immunodeficiency virus 1, concentration giving 50% inhibition of cytopathic effect of HIV
Description: (§1) The IC50 is the concentration of compound that gives 50% inhibition of the cytopathic effect of HIV. The LC50 is the concentration of compound at which 50% of the cells remain viable.

[1] = Cytotoxicity in MT4 cells; type: cell-based; conditions: human, concentration at which 50% of the cells remain viable, read-out: LC50 (the source's name)
Description: as §1

HIV-1 protease = HIV-1 protease (Human immunodeficiency virus type 1 group M subtype B, UniProt P04585); test: Fluorogenic assay for screening inhibitors of HIV protease
[2] = pH 4.5, read-out: Percent Inhibition

SMILES: CC(C)(C)OC(=O)NN(Cc1ccccc1)C[C@H](O)[C@H](Cc1ccccc1)NC(=O)OCc1ccccc1 [Example 1F, 2-(t-Butyloxycarbonyl)amino-4S-hydroxy-5S-(benzyloxycarbonyl)amino-1,6-diphenyl-2-azahexane]
IC50 (HIV-13B in MT4 cells): 36000 nM
CC50 [1]: > 100000 nM
IC50 (HIV-1 protease): 5.1 nM
inhibition at 0.0051 µM (HIV-1 protease; [2]): 50%

SMILES: CC(C)[C@H](NC(=O)OCc1ccccn1)C(=O)N[C@@H](Cc1ccccc1)[C@@H](O)CN(Cc1ccccc1)NC(=O)OC(C)(C)C [Example 2E, 5S-N-((2-Pyridinyl)methoxycarbonyl)valinylamino-2-t-butyloxycarbonylamino-4S-hydroxy-1,6-diphenyl-2-azahexane]
IC50 (HIV-13B in MT4 cells): 780 to 1230 nM
CC50 [1]: 56000 nM
IC50 (HIV-1 protease): 0.5 nM
inhibition at 0.0005 µM (HIV-1 protease; [2]): 50%

SMILES: CC(C)[C@H](NC(=O)OCc1ccccn1)C(=O)N[C@@H](Cc1ccccc1)[C@@H](O)CN(Cc1ccccc1)NC(=O)OCc1cccnc1 [Example 5B, 5S-N-((2-Pyridinyl)methoxycarbonyl)valinylamino-2-((N-3-pyridinyl)methoxycarbonyl)amino-4S-hydroxy-1,6-diphenyl-2-azahexane]
IC50 (HIV-13B in MT4 cells): 150 to 260 nM
CC50 [1]: > 100000 nM
inhibition at 0.0005 µM (HIV-1 protease; [2]): 60%

SMILES: CC(C)(C)OC(=O)NN(Cc1ccccc1)C[C@H](O)[C@H](Cc1ccccc1)NC(=O)OCc1cncs1 [Example 7F, 5S-(((5-Thiazolyl)methoxy)carbonyl)amino-2-(t-butyloxycarbonyl)amino-4S-hydroxy-1,6-diphenyl-2-azahexane]
IC50 (HIV-13B in MT4 cells): 6500 to 18200 nM
CC50 [1]: 44000 nM
IC50 (HIV-1 protease): 4.4 nM
inhibition at 0.0044 µM (HIV-1 protease; [2]): 50%

SMILES: CC(C)c1nc(CN(C)C(=O)N[C@H](C(=O)NN(Cc2ccccc2)C[C@H](O)[C@H](Cc2ccccc2)NC(=O)OCc2cncs2)C(C)C)cs1 [Example 8, 5S-(((5-Thiazolyl)methoxy)carbonyl)amino-2-N-((N-methyl-N-((2-isopropyl-4-thiazolyl)methyl)amino)carbonyl)-L-valinylamino-4S-hydroxy-1,6-diphenyl-2-azahexane]
IC50 (HIV-13B in MT4 cells): 100 to 110 nM
CC50 [1]: 17000 nM
inhibition at 0.0005 µM (HIV-1 protease; [2]): 77%

SMILES: CC(C)c1nc(CN(C)C(=O)N[C@H](C(=O)N[C@@H](Cc2ccccc2)[C@@H](O)CN(Cc2ccccc2)NC(=O)OC(C)(C)C)C(C)C)co1 [Example 9F, 5S-N-((N-Methyl-N-((2-isopropyl-4-oxazolyl)methyl)amino)carbonyl)-L-valinylamino-2-N-(t-butyloxycarbonyl)amino-4S-hydroxy-1,6-diphenyl-2-azahexane]
IC50 (HIV-13B in MT4 cells): 460 to 1000 nM
CC50 [1]: 19000 nM
inhibition at 0.0005 µM (HIV-1 protease; [2]): 61%

SMILES: CCc1cccc(CN(C)C(=O)N[C@H](C(=O)NN(Cc2ccccc2)C[C@H](O)[C@H](Cc2ccccc2)NC(=O)OCc2ccccc2)C(C)C)n1 [Example 10, 5S-(Benzyloxycarbonyl)amino-2-N-((N-methyl-N-((6-ethyl-2-pyridinyl)methyl)amino)carbonyl)-L-valinylamino-4S-hydroxy-1,6-diphenyl-2-azahexane]
IC50 (HIV-13B in MT4 cells): 830 to 1100 nM
CC50 [1]: 19000 nM
IC50 (HIV-1 protease): 0.5 nM
inhibition at 0.0005 µM (HIV-1 protease; [2]): 50%

SMILES: CC(C)c1nc(CN(C)C(=O)N[C@H](C(=O)NN(Cc2ccccc2)C[C@H](O)[C@H](Cc2ccccc2)NC(=O)OCc2ccccc2)C(C)C)co1 [Example 11, 5S-(Benzyloxycarbonyl)amino-2-N-((N-methyl-N-((2-isopropyl-4-oxazolyl)methyl)amino)carbonyl)-L-valinylamino-4S-hydroxy-1,6-diphenyl-2-azahexane]
IC50 (HIV-13B in MT4 cells): 230 nM
CC50 [1]: 18000 nM
inhibition at 0.0005 µM (HIV-1 protease; [2]): 69%

SMILES: CC(C)c1nc(CN(C)C(=O)N[C@H](C(=O)NN(Cc2ccccc2)C[C@H](O)[C@H](Cc2ccccc2)NC(=O)OCc2cncs2)C(C)C)co1 [Example 12, 5S-((5-Thiazolyl)methoxy)Carbonylamino-2-N-((N-methyl-N-((2-isopropyl-4-oxazolyl)methyl)amino)carbonyl)-L-valinylamino-4S-hydroxy-1,6-diphenyl-2-azahexane]
IC50 (HIV-13B in MT4 cells): 100 to 105 nM
CC50 [1]: 53000 nM
inhibition at 0.0005 µM (HIV-1 protease; [2]): 78%

SMILES: CC(C)c1nc(CN(C)C(=O)N[C@H](C(=O)NN(Cc2ccccc2)C[C@H](O)[C@H](Cc2ccccc2)NC(=O)OCc2ccno2)C(C)C)co1 [Example 13D, 5S-N-((5-Isoxazolyl)methoxy)carbonylamino-2-N-((N-methyl-N-((2-isopropyl-4-oxazolyl)methyl)amino)carbonyl)-L-valinylamino-4S, hydroxy-1,6-diphenyl-2-azahexane]
IC50 (HIV-13B in MT4 cells): 102 to 150 nM
CC50 [1]: 58000 nM
inhibition at 0.0005 µM (HIV-1 protease; [2]): 71%

SMILES: COc1ccc(CN(C[C@H](O)[C@H](Cc2ccccc2)NC(=O)[C@@H](NC(=O)OCc2ccccn2)C(C)C)NC(=O)OC(C)(C)C)cc1 [Example 15, 5S-N-((2-Pyridinyl)methoxycarbonyl)-L-valinylamino-2-N-(t-butyloxycarbonyl)amino-4S-hydroxy-1-p-methoxyphenyl-6-phenyl-2-azahexane]
IC50 (HIV-13B in MT4 cells): 440 to 600 nM
CC50 [1]: > 100000 nM
inhibition at 0.0005 µM (HIV-1 protease; [2]): 44%

SMILES: COc1ccc(CN(C[C@H](O)[C@H](Cc2ccccc2)NC(=O)[C@@H](NC(=O)OCc2ccccn2)C(C)C)NC(=O)OCc2cccnc2)cc1 [Example 16, 5S-N-((2-Pyridinyl)methoxycarbonyl)-L-valinylamino-2-N-((3-pyridinyl)methoxycarbonyl)amino-4S-hydroxy-1-p-methoxyphenyl-6-phenyl-2-azahexane]
IC50 (HIV-13B in MT4 cells): 200 to 270 nM
CC50 [1]: 57000 nM
IC50 (HIV-1 protease): 0.5 nM
inhibition at 0.0005 µM (HIV-1 protease; [2]): 50%

inhibition at 0.0005 µM (HIV-1 protease; [2]): 75%
SMILES: CC(C)c1nc(COC(=O)N[C@H](C(=O)NN(Cc2ccoc2)C[C@H](O)[C@H](Cc2ccccc2)NC(=O)OCc2cncs2)C(C)C)co1 [Example 49E, 5S-(((5-Thiazolyl)methoxy)carbonyl)amino-2-((N-2-isopropyl-4-oxazolyl)methoxycarbonyl)amino-4S-hydroxy-1-(3-furanyl)-6-phenyl-2-azahexane]
IC50 (HIV-13B in MT4 cells): 29 to 32 nM

inhibition at 0.0005 µM (HIV-1 protease; [2]): 73%
SMILES: CC(C)c1nc(COC(=O)N[C@H](C(=O)NN(Cc2ccccc2)C[C@H](O)[C@H](Cc2ccccc2)NC(=O)OCc2cncs2)C(C)C)co1 [Example 50, 5 S-(((5-Thiazolyl)methoxy)carbonyl)amino-2-((N-2-isopropyl-4-oxazolyl)methoxycarbonyl)amino-4S-hydroxy-1,6-diphenyl-2-azahexane]
IC50 (HIV-13B in MT4 cells): 16 to 31 nM

IC50 (HIV-1 protease): 0.5 nM
inhibition at 0.0005 µM (HIV-1 protease; [2]): 50%
SMILES: CC(C)c1nc(COC(=O)N[C@H](C(=O)N[C@@H](Cc2ccccc2)[C@@H](O)CN(Cc2ccc(F)cc2)NC(=O)OC(C)(C)C)C(C)C)co1 [Example 51D]
IC50 (HIV-13B in MT4 cells): 209 to 274 nM

inhibition at 0.0005 µM (HIV-1 protease; [2]): 57%
SMILES: CC(C)c1nc(COC(=O)N[C@H](C(=O)N[C@@H](Cc2ccccc2)[C@@H](O)CN(Cc2ccc(O)cc2)NC(=O)OC(C)(C)C)C(C)C)co1 [Example 53, 5S-(((2-Isopropyl-4-oxazolyl)methoxycarbonyl)-valinyl)amino-2-(t-butyloxycarbonyl)amino-4S-hydroxy-1-(4-hydroxyphenyl)-6-phenyl-2-azahexane]
IC50 (HIV-13B in MT4 cells): 55 nM

inhibition at 0.0005 µM (HIV-1 protease; [2]): 56%
SMILES: CC(C)c1nc(CN(C)C(=O)N[C@H](C(=O)NN(Cc2ccc(O)cc2)C[C@H](O)[C@H](Cc2ccccc2)NC(=O)OCc2cncs2)C(C)C)cs1 [Example 54B]
IC50 (HIV-13B in MT4 cells): 37 to 67 nM
